From PMC7801115, “Preclinical in vitro screening of newly synthesised amidino substituted benzimidazoles and benzothiazoles” (Journal of Enzyme Inhibition and Medicinal Chemistry, 2021)
pIC50: −log10 of the molar value.

How the values were obtained:
[1] = system: A549; assay: Cell viability assay, 3D hanging drop cell culture (CellTiter GLO 3D); format: cell-based; details: Homo sapiens; A549, 3D hanging drop cell culture, 72 h; ±SD, N = 2; read-out: IC50 antitumor activity A549 3D
Protocol: (§1) Compounds are diluted 1:3. 500 nL (for 2 D cell culture) or 400 nL (for 3 D cell culture) of compound were transferred from mother plate to test plate by using Mosquito (TTP labtech). DMSO percentage in test concentrations was 0.5 − 1.0%. Starting concentration of the test compounds and standard compound doxorubicin was 50 µM (2 D cell culture) or 100 µM (3 D cell culture).
(§2) Cells were grown in 96 well Perfecta 3 D hanging drop plates 5000 cell/well for 4 days until spheres were formed (and checked under the microscope). After sphere formation cells were treated with compounds followed by 72 h incubation. Cell viability assay was performed according to the manufacturer’s instruction, using CellTiter GLO 3 D for 3 D cell culture (Promega); cell incubation was 5 min on the shaker followed by 25 min incubation in the dark. Plates were read using PE EnVision luminescence.
(§3) Calculation of IC50 data, curves and QC analysis is made by using Excel tools and GraphPadPrism software (La Jolla, CA), v. […] QC criteria parameters (Z', S:B, R2, HillSlope) were checked for every IC50 curve.

[2] = system: NCI-H358; assay: as above; format: cell-based; details: Homo sapiens; NCI-H358, 3D hanging drop cell culture, 72 h; ±SD, N = 2; read-out: IC50 antitumor activity NCI-H358 3D
Protocol: as §1, §2, §3

[3] = system: HCC827; assay: as above; format: cell-based; details: Homo sapiens; HCC827, 3D hanging drop cell culture, 72 h; ±SD, N = 2; read-out: IC50 antitumor activity HCC827 3D
Protocol: as §1, §2, §3

[4] = system: P-glycoprotein (human MDR1); assay: MDCKII-MDR1 permeability and P-glycoprotein substrate assay; format: in vitro ADME, canine cells over-expressing human MDR1; details: dog
Protocol: Permeability and P-glycoprotein substrate assessment was done on MDCKII-hMDR1, Madin-Darby canine epithelial cells over-expressing human MDR1 gene, coding for P-glycoprotein.
Cells were prepared for transport studies by seeding on 96-well cell culture inserts (Millipore, MA, USA) in a concentration of 0.25 × 10^6 cells per ml. The cells were fed with fresh medium 24 h post seeding and cultured to confluence for 3 days before use. On the day of experiment, the cell monolayers were washed and equilibrated with transport medium (DPBS, pH 7.4 containing 1% DMSO) with or without P-gp specific inhibitor, elacridar (2 µM) for 45 min (37 °C, 5% CO2, 95% humidity). Test compound solution consisted of test substance (10 μM) in D-PBS medium containing lucifer yellow (100 μM) and 1% DMSO. Transport assays were conducted in apical to basolateral (A2B) and basolateral to apical (B2A) directions, respectively. Monolayers were incubated with the compound solution for 60 min at 37 °C under gentle agitation. Apical and basolateral compartments were sampled at the end of the transport experiment, while donor solutions were also sampled at the beginning of the experiment in order to determine initial concentration. Test substance concentrations in both compartments were determined by LC-MS/MS. There were several controls used in the assay: 1) amprenavir (0.5 μM) served as a low permeable control, being also a P-gp substrate; 2) diclofenac (10 μM) was used as a high permeable control; 3) Lucifer yellow, a fluorescent marker for the paracellular membrane transport, was used as a control of cell monolayer integrity.
All ADME samples were analysed on a Sciex API 4000 or Sciex API4500 Triple Quadrupole Mass Spectrometer (Sciex, Framingham, MA, USA) coupled to a UHPLC System (Shimadzu Nexera X2; Shimadzu, Kyoto, Japan). Samples were injected onto an UPLC column (HALO2 C18, 2.1 × 20 mm, 2 µm or Phenomenex Luna Omega Polar C18, 30 × 2.1 mm, 1.6 µm) and eluted with a gradient at temperature of 50 °C. The mobile phase was composed of acetonitrile (with 0.1% formic acid) and 0.1% formic acid in deionised water. A total run time was 1 or 1.5 min, with the flow rate of 0.7 ml/min (under gradient conditions). A positive ion mode with turbo spray, an ion source temperature of 500 °C and a dwell time of 150 ms were utilised for mass spectrometric detection. Multiple reaction monitoring (MRM) was used at the specific transitions for each compound/control tested: compound 5c: 361.9 → 304.9; compound 5d: 344.8 → 287.9; compound 5e: 349.8 → 292.9; compound 5 g: 350.8 → 293.9; compound 5 h: 344.0 → 286.9; compound 6a: 276.9 → 220.0; compound 5 b: 319.0 → 262.0; compound 6 b: 302.1 → 245.1; compound 6c: 344.9 → 288.0; compound 6d: 333.0 → 276.0; compound 6e: 316.1 → 259.0; compound 6f: 327.1 → 270.0; compound 6 g: 377.1 → 320.1; testosterone: 289.3→ 97.1; propranolol: 260.1 → 182.8; caffeine: 195.2 → 138.1; acebutolol: 337.2 → 116.2, nicardipine: 480.2 → 315.0; verapamil: 455.4 → 165.1; amprenavir: 506.2 → 245.4; diclofenac: 296.1 → 213.7 or 296.2 → 215.3; eucatropine: 292.2 → 109.1; benfluorex: 352.1 → 230.3, and warfarin: 309.2 → 163.2

[5] = system: A549; assay: BrdU proliferation assay, 3D cell culture; format: cell-based; details: Homo sapiens, A549, 3D cell culture, ±SD, N = 2
Protocol: as §2, with “luminescence. The results for each of tested compounds are reported as growth percentages from two independent concentrations curves compared with the untreated control cells after drug exposure.” for “luminescence.”
(§4) Proliferation assay was performed using Cell Proliferation ELISA, BrdU (Sigma, St. Louis, MO, USA). Briefly, 48 h hours after compound addition, 10 µM of BrdU was added to each well and incubated for following 24 h. After incubation, single cell suspension was made for 3 D cell culture in the new 96 well plate. Plates were centrifuged and supernatants were removed from each plate (for 2 D and 3 D cell culture) followed by 60 min incubation at 60° C. The rest of the proliferation assay was performed according to the manufacturer instructions.
(§5) Calculation of IC50 data, curves and QC analysis is made by using Excel tools and GraphPadPrism software (La Jolla, CA), v. 5.03. In brief, individual concentration–effect curves are generated by plotting the logarithm of the tested concentration of tested compounds (X) versus corresponding percent inhibition values (Y) using least squares (ordinary) fit. […] QC criteria parameters (Z', S:B, R2, HillSlope) were checked for every IC50 curve.

[6] = system: NCI-H358; assay: BrdU proliferation assay, 3D cell culture; format: cell-based; details: Homo sapiens, NCI-H358, 3D cell culture, ±SD, N = 2
Protocol: as §2, with “luminescence. The results for each of tested compounds are reported as growth percentages from two independent concentrations curves compared with the untreated control cells after drug exposure.” for “luminescence.”
as §4, §5

Q: Which results are given for `c1ccc2c(c1)cc(-c1nc3cc(C4=NCCCN4)ccc3[nH]1)c1ccccc12` [Compound 6g, 2-(Phenanthrene-9-yl)-5(6)–(3,4,5,6-tetrahydropyrimidin-1-ium-2-yl)benzimidazole chloride]?
A: pIC50 [1]: < 4.00; pIC50 [2]: < 4.00; pIC50 [3]: < 4.00; efflux ratio at 60 min, 10 µM ([4]; MDCK-MDR1, pH 7.4, without P-gp inhibitor): 6.6; Papp A→B at 60 min, 10 µM ([4]; MDCK-MDR1, pH 7.4, 10 µM, 60 min, without P-gp inhibitor, read-out: MDCKII-MDR1 Papp(A2B)): 0.02 ×10⁻⁶ cm/s; Papp B→A at 60 min, 10 µM ([4]; MDCK-MDR1, pH 7.4, 10 µM, 60 min, without P-gp inhibitor, read-out: MDCKII-MDR1 Papp(B2A)): 0.2 ×10⁻⁶ cm/s; pIC50 [5]: < 4.00; pIC50 [6]: < 4.00
